ChEMBL document CHEMBL1649167, “Serial plasma voriconazole concentrations after allogeneic hematopoietic stem cell transplantation” (Antimicrob Agents Chemother, 2009)

Assay: Plasma concentration in po dosed patient after 6 days by HPLC analysis
Format: ADME, organism-based
Conditions: human

SMILES: C[C@@H](c1ncncc1F)[C@](O)(Cn1cncn1)c1ccc(F)cc1F [VORICONAZOLE]
- concentration at 144 h: < 120 ng/mL
